Laboratory results as given in US10208007B2, “Use of strigolactones and strigolactone analogs for treating proliferative conditions” (The State of Israel, Ministry of Agriculture & Rural …, priority 2011, dated 2019).

Tests used:
MCF-7 cells = test: Stability in aqueous solution (media, activity on MCF-7 by XTT); assay type: physicochemical, human; settings: stored at 4° C. for 3 days
Description: To assess strigolactone analogs stability in aqueous solution, each strigolactone analog was diluted to the desired concentration in media and stored at 4° C. for 3 days, at which time the strigolactone analog containing media was overlayed onto MCF-7 cells seeded into 96 well plates in phenol free DMEM supplemented with 5% charcoal stripped serum. After 3 days growth and viability was assessed (XTT, ATCC) and results compared to cells treated with freshly diluted strigolactone analog (FIG. 15) (absorbance readings presented as % of controls. Average+SD). […] For this reason all strigolactone analogs were diluted fresh from acetone stocks into media to desired concentrations and overlayed onto cells within 1 hour. Where necessary, media was refreshed every 3 days.

Candida oleophila = test: Yeast cell culture growth (OD); assay type: cell-based; settings: 10 μM, apparent 8 hours after application
Description: Saccharomyces cerevisiae and Candida oleophila yeast cells were grown overnight in a reach nutrient media at 28° C., at 150 rpm. Following, they were diluted to 0.4 OD in low nutrient media (Lily) and were divided into 96 wells. The cells were treated with GR-24 or ST-362, at the indicated concentrations. Cell culture growth was monitored every hour for 17 hours, at 28° C., with gentle shake before each OD read. OD was determined using fluorometer. Statistical differences between curves were analyzed using compareGrowthCurves function from the Statistical Modeling package, statmod (http://bioinf.wehi.edu.au/software/compareCurves/), significance was determined once P≤0.05.

pP38 = test: Immunoblot with densitometric quantification; assay type: cell-based, human
Description: Protein concentration was determined using the BCA Protein Assay (Pierce), and 20-50 μg of lysate were separated in a 4-12% SDS-PAGE gel. After transfer, membranes were blocked for 15-30 min at room temperature in 5% BSA (Sigma) in Tris-buffered saline containing 0.1% Tween-20. Primary antibody was incubated for either 1.5 hours at room temperature or overnight at 4° C. Secondary antibody was incubated for 30-45 min at room temperature, and proteins were visualized with West Pico Stable (Pierce). […]
(§1) Densitometric quantifications were carried out using ImageJ software (NIMH).
To investigate the signaling mechanisms elicited by strigolactone analogs in cancer cells, MDA-MB-231, DU145 and HCT116 cells were treated with strigolactone analogs for 1, 4 or 8 hours and lysates were analyzed by immuno-blotting. […]
Immunoblot analysis of MDA-MB-231 and HCT116 cells treated with strigolactone analogs was performed. […] At 4 hours and 8 hours, pP38 levels increased 5 fold and 13 fold respectively following ST-362 treatment compared to vehicle controls (FIG. 13B—a bar graph showing densitometric quantification of pP38 levels as shown in FIG. 13A). […]

pAKT = test: Immunoblot with densitometric quantification; assay type: cell-based, human
Description: Protein concentration was determined using the BCA Protein Assay (Pierce), and 20-50 μg of lysate were separated in a 4-12% SDS-PAGE gel. After transfer, membranes were blocked for 15-30 min at room temperature in 5% BSA (Sigma) in Tris-buffered saline containing 0.1% Tween-20. Primary antibody was incubated for either 1.5 hours at room temperature or overnight at 4° C. Secondary antibody was incubated for 30-45 min at room temperature, and proteins were visualized with West Pico Stable (Pierce). All antibodies were used at 1:1000 dilution unless otherwise stated. pT308AKT, AKT, pT180/Y182, pT183/Y185 P38MAPK, pP38MAPK, pT202/Y204 pERK1/2, ERK1, pT183/Y185, pJNK1/2, JNK1, pT71ATF2, pT581MSK1, pT14 Cdc2, Cdc2, pT68Chk2 (cell signaling), pT334MAPKAPK, pS82HSP27 (Cell Signaling Technology, Danvers, Mass.), α-tubulin (Biomarkers, 1:50,000), Cyclin B1 (Santa Cruz Biotechnologies) and horseradish peroxidase-conjugated anti-rabbit IgG and anti-mouse IgG (1:5,000, Pierce).
as §1
[…] The family of MAPK enzymes plays a pivotal role in cell growth, survival and cellular stress responses. […]

## CC1=CC(O/C=C2\Cc3c(n(C)c4ccccc34)C2=O)OC1=O (racemic) [EG-5, (±) (2E)-4-methyl-2-(4-methyl-5-oxo-2,5-dihydrofuran-2-yloxymethylene)-1,4-dihydro-2H-cyclopenta[b]indol-3-one]
MCF-7 cells
  Stability in aqueous solution: activity versus freshly diluted analog: completely failed to inhibit MCF-7 growth

## CC1=CC(O/C=C2/C(=O)c3c(c4cc(-c5scc6c5OCCO6)ccc4n3C)C2C)OC1=O (stereo not drawn) [ST-362, (2E)-2-[(2,5-dihydro-4-methyl-5-oxofuran-2-yloxy)methylene]-1,2-dihydro-7-(2,3-dihydrothieno[3,4-b][1,4]dioxin-7-yl)-1,4-dimethyl-cyclopenta[b]indole-3-(4H)-one]
Candida oleophila
  Cell culture growth: reduction of cell culture growth
pP38; MDA-MB-231, 4 hours
  pP38 levels increase compared to vehicle controls: 5 fold
pP38; MDA-MB-231, 8 hours
  pP38 levels increase compared to vehicle controls: 13 fold

## CC1=CC(O/C=C2\Cc3c(n(C)c4cc(-c5cccs5)ccc34)C2=O)OC1=O (racemic) [MEB-55, (±) 2E-4-methyl-2-(4-methyl-5-oxo-2,5-dihydrofuran-2-yloxymethylene)-6-thiophen-2-yl-1,4-dihydro-2H-cyclopenta[b]indol-3-one]
pAKT; DU145, 8 hours
  pAKT levels decrease: 6 fold
pAKT; DU145, 24 hours
  pAKT levels: undetectable levels
